Experimental data reported in PubChem BioAssay (NCI).
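In this assay, cells in 96-well plates receive the compound at five concentrations for 48 hours. Endpoints are linearly interpolated between the surrounding concentrations. At the GI50, growth is halved. Definition used: TGI = concentration required for complete inhibition of growth.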

Tests used:
Assay in all cases: DTP human tumour cell line panel, 48 h
HCT-116 colon = test system: HCT-116 colon
LOX IMVI melanoma = test system: LOX IMVI melanoma
PC-3 prostate = test system: PC-3 prostate
SNB-75 CNS = test system: SNB-75 CNS
NCI/ADR-RES ovarian = test system: NCI/ADR-RES ovarian
K-562 leukemia = test system: K-562 leukemia
MALME-3M melanoma = test system: MALME-3M melanoma
EKVX NSCLC = test system: EKVX NSCLC
NCI-H226 lung = test system: NCI-H226 lung
SK-MEL-28 melanoma = test system: SK-MEL-28 melanoma
HOP-62 NSCLC = test system: HOP-62 NSCLC
SW-620 colon = test system: SW-620 colon
SNB-19 CNS = test system: SNB-19 CNS
RXF 393 renal = test system: RXF 393 renal
HOP-92 NSCLC = test system: HOP-92 NSCLC
SF-268 CNS = test system: SF-268 CNS
OVCAR-4 ovarian = test system: OVCAR-4 ovarian
TK-10 renal = test system: TK-10 renal
HT29 colon = test system: HT29 colon
786-0 renal = test system: 786-0 renal
SN12C renal = test system: SN12C renal
KM12 colon = test system: KM12 colon
HCT-15 colon = test system: HCT-15 colon
SF-295 CNS = test system: SF-295 CNS
UACC-62 melanoma = test system: UACC-62 melanoma
HS 578T breast = test system: HS 578T breast
MDA-MB-231 breast = test system: MDA-MB-231 breast
CCRF-CEM leukemia = test system: CCRF-CEM leukemia
BT-549 breast = test system: BT-549 breast
ACHN renal = test system: ACHN renal
NCI-H522 lung = test system: NCI-H522 lung
OVCAR-5 ovarian = test system: OVCAR-5 ovarian
A549 NSCLC = test system: A549 NSCLC
CAKI-1 renal = test system: CAKI-1 renal
U251 CNS = test system: U251 CNS
HCC-2998 colon = test system: HCC-2998 colon
MDA-MB-435 = test system: MDA-MB-435
SK-OV-3 ovarian = test system: SK-OV-3 ovarian
HL-60(TB) leukemia = test system: HL-60(TB) leukemia
SK-MEL-2 melanoma = test system: SK-MEL-2 melanoma
DU-145 prostate = test system: DU-145 prostate
SF-539 CNS = test system: SF-539 CNS
UACC-257 melanoma = test system: UACC-257 melanoma
RPMI-8226 leukemia = test system: RPMI-8226 leukemia
MOLT-4 leukemia = test system: MOLT-4 leukemia
T-47D breast = test system: T-47D breast
COLO 205 colon = test system: COLO 205 colon
NCI-H23 lung = test system: NCI-H23 lung
IGROV1 ovarian = test system: IGROV1 ovarian
SK-MEL-5 melanoma = test system: SK-MEL-5 melanoma
OVCAR-8 ovarian = test system: OVCAR-8 ovarian
M14 melanoma = test system: M14 melanoma
MCF7 breast = test system: MCF7 breast
UO-31 renal = test system: UO-31 renal
A498 renal = test system: A498 renal
SR leukemia = test system: SR leukemia
NCI-H460 lung = test system: NCI-H460 lung
OVCAR-3 ovarian = test system: OVCAR-3 ovarian

SMILES: NC(=O)n1c(=O)n(-c2cccc(C(F)(F)F)c2)c(=O)c2cc(-c3ccc(F)cc3F)ccc21
- GI50 (HCT-116 colon): 0.559 µM
- TGI (HCT-116 colon): 1.98 µM
- GI50 (LOX IMVI melanoma): 1.68 µM
- TGI (LOX IMVI melanoma): 3.76 µM
- GI50 (PC-3 prostate): 1.07 µM
- TGI (PC-3 prostate): 5.73 µM
- GI50 (SNB-75 CNS): 1.81 µM
- TGI (SNB-75 CNS): 7.47 µM
- GI50 (NCI/ADR-RES ovarian): 2.06 µM
- TGI (NCI/ADR-RES ovarian): 8.87 µM
- GI50 (K-562 leukemia): 0.771 µM
- TGI (K-562 leukemia): 80.3 µM
- GI50 (MALME-3M melanoma): 1.44 µM
- TGI (MALME-3M melanoma): 5.3 µM
- GI50 (EKVX NSCLC): 2.83 µM
- TGI (EKVX NSCLC): 9.59 µM
- GI50 (NCI-H226 lung): 1.31 µM
- TGI (NCI-H226 lung): 3.99 µM
- GI50 (SK-MEL-28 melanoma): 1.39 µM
- TGI (SK-MEL-28 melanoma): 8.55 µM
- GI50 (HOP-62 NSCLC): 1.96 µM
- TGI (HOP-62 NSCLC): 4.79 µM
- GI50 (SW-620 colon): 2.65 µM
- TGI (SW-620 colon): 10.4 µM
- GI50 (SNB-19 CNS): 1.51 µM
- TGI (SNB-19 CNS): 12.7 µM
- GI50 (RXF 393 renal): 1.23 µM
- TGI (RXF 393 renal): 3.13 µM
- GI50 (HOP-92 NSCLC): 0.149 µM
- TGI (HOP-92 NSCLC): 0.568 µM
- GI50 (SF-268 CNS): 2.57 µM
- TGI (SF-268 CNS): 13 µM
- GI50 (OVCAR-4 ovarian): 2.81 µM
- TGI (OVCAR-4 ovarian): 16.5 µM
- GI50 (TK-10 renal): 4.04 µM
- TGI (TK-10 renal): 9.74 µM
- GI50 (HT29 colon): 4.38 µM
- TGI (HT29 colon): 18.8 µM
- GI50 (786-0 renal): 1.94 µM
- TGI (786-0 renal): 4.54 µM
- GI50 (SN12C renal): 1.27 µM
- TGI (SN12C renal): 7.24 µM
- GI50 (KM12 colon): 2.55 µM
- TGI (KM12 colon): 7.15 µM
- GI50 (HCT-15 colon): 0.79 µM
- TGI (HCT-15 colon): 2.68 µM
- GI50 (SF-295 CNS): 1.68 µM
- TGI (SF-295 CNS): 3.51 µM
- GI50 (UACC-62 melanoma): 0.363 µM
- TGI (UACC-62 melanoma): 1.69 µM
- GI50 (HS 578T breast): 2.12 µM
- TGI (HS 578T breast): 7.06 µM
- GI50 (MDA-MB-231 breast): 2.12 µM
- TGI (MDA-MB-231 breast): 6.86 µM
- GI50 (CCRF-CEM leukemia): 3.07 µM
- TGI (CCRF-CEM leukemia): 19 µM
- GI50 (BT-549 breast): 0.315 µM
- TGI (BT-549 breast): 1.12 µM
- GI50 (ACHN renal): 2.42 µM
- TGI (ACHN renal): 10.1 µM
- GI50 (NCI-H522 lung): 0.493 µM
- TGI (NCI-H522 lung): 3.74 µM
- GI50 (OVCAR-5 ovarian): 3.38 µM
- TGI (OVCAR-5 ovarian): 14.4 µM
- GI50 (A549 NSCLC): 3.19 µM
- TGI (A549 NSCLC): 11.8 µM
- GI50 (CAKI-1 renal): 1.9 µM
- TGI (CAKI-1 renal): 6.38 µM
- GI50 (U251 CNS): 2.01 µM
- TGI (U251 CNS): 11.1 µM
- GI50 (HCC-2998 colon): 2.76 µM
- TGI (HCC-2998 colon): 9.26 µM
- GI50 (MDA-MB-435): 1.89 µM
- TGI (MDA-MB-435): 7.33 µM
- GI50 (SK-OV-3 ovarian): 1.6 µM
- TGI (SK-OV-3 ovarian): 4.42 µM
- GI50 (HL-60(TB) leukemia): 1.27 µM
- TGI (HL-60(TB) leukemia): 7.52 µM
- GI50 (SK-MEL-2 melanoma): 0.75 µM
- TGI (SK-MEL-2 melanoma): 2.82 µM
- GI50 (DU-145 prostate): 3.53 µM
- TGI (DU-145 prostate): 15.5 µM
- GI50 (SF-539 CNS): 2.11 µM
- TGI (SF-539 CNS): 8.5 µM
- GI50 (UACC-257 melanoma): 1.06 µM
- TGI (UACC-257 melanoma): 4.54 µM
- GI50 (RPMI-8226 leukemia): 0.99 µM
- TGI (RPMI-8226 leukemia): 5.12 µM
- GI50 (MOLT-4 leukemia): 2.22 µM
- TGI (MOLT-4 leukemia): 6.16 µM
- GI50 (T-47D breast): 1.61 µM
- TGI (T-47D breast): 6.28 µM
- GI50 (COLO 205 colon): 3.35 µM
- TGI (COLO 205 colon): 10.6 µM
- GI50 (NCI-H23 lung): 1.23 µM
- TGI (NCI-H23 lung): 4.63 µM
- GI50 (IGROV1 ovarian): 2.12 µM
- TGI (IGROV1 ovarian): 15.1 µM
- GI50 (SK-MEL-5 melanoma): 0.338 µM
- TGI (SK-MEL-5 melanoma): 1.21 µM
- GI50 (OVCAR-8 ovarian): 1.84 µM
- TGI (OVCAR-8 ovarian): 9.65 µM
- GI50 (M14 melanoma): 1.34 µM
- TGI (M14 melanoma): 3.8 µM
- GI50 (MCF7 breast): 1.74 µM
- TGI (MCF7 breast): 6.47 µM
- GI50 (UO-31 renal): 2.19 µM
- TGI (UO-31 renal): 8.44 µM
- GI50 (A498 renal): 0.512 µM
- TGI (A498 renal): 1.93 µM
- GI50 (SR leukemia): 0.58 µM
- TGI (SR leukemia): 4.6 µM
- GI50 (NCI-H460 lung): 1.39 µM
- TGI (NCI-H460 lung): 6.8 µM

SMILES: Cc1[nH]c(C(=O)Nc2ccccc2OCc2cccc(C(=O)NC3CCNC3)c2)c(Cl)c1Cl (stereo not drawn)
- GI50 (HCT-116 colon): 1.85 µM
- TGI (HCT-116 colon): 3.67 µM
- GI50 (SNB-75 CNS): 1.56 µM
- TGI (SNB-75 CNS): 4.95 µM
- GI50 (NCI/ADR-RES ovarian): > 100 µM
- TGI (NCI/ADR-RES ovarian): > 100 µM
- GI50 (EKVX NSCLC): 1.95 µM
- TGI (EKVX NSCLC): 4.64 µM
- GI50 (NCI-H226 lung): 15.3 µM
- TGI (NCI-H226 lung): 47.3 µM
- GI50 (SK-MEL-28 melanoma): 1.86 µM
- TGI (SK-MEL-28 melanoma): 3.43 µM
- GI50 (SW-620 colon): 1.86 µM
- TGI (SW-620 colon): 3.54 µM
- GI50 (RXF 393 renal): 2.07 µM
- TGI (RXF 393 renal): 4.9 µM
- GI50 (HOP-92 NSCLC): 3.57 µM
- TGI (HOP-92 NSCLC): 20.5 µM
- GI50 (TK-10 renal): 2.86 µM
- TGI (TK-10 renal): 7.19 µM
- GI50 (SN12C renal): 11 µM
- TGI (SN12C renal): 27.7 µM
- GI50 (KM12 colon): 1.94 µM
- TGI (KM12 colon): 3.69 µM
- GI50 (OVCAR-3 ovarian): 1.89 µM
- TGI (OVCAR-3 ovarian): 3.44 µM
- GI50 (HCT-15 colon): 4.87 µM
- TGI (HCT-15 colon): 22.7 µM
- GI50 (SF-295 CNS): 4.52 µM
- TGI (SF-295 CNS): 38.9 µM
- GI50 (UACC-62 melanoma): 1.67 µM
- TGI (UACC-62 melanoma): 3.32 µM
- GI50 (MDA-MB-231 breast): 1.88 µM
- TGI (MDA-MB-231 breast): 3.59 µM
- GI50 (CCRF-CEM leukemia): 1.91 µM
- TGI (CCRF-CEM leukemia): 4.46 µM
- GI50 (BT-549 breast): 5.15 µM
- TGI (BT-549 breast): 25.1 µM
- GI50 (ACHN renal): 3.17 µM
- TGI (ACHN renal): 11.5 µM
- GI50 (OVCAR-5 ovarian): 1.76 µM
- TGI (OVCAR-5 ovarian): 3.24 µM
- GI50 (CAKI-1 renal): 2.05 µM
- TGI (CAKI-1 renal): 5.1 µM
- GI50 (HCC-2998 colon): 1.91 µM
- TGI (HCC-2998 colon): 3.55 µM
- GI50 (MDA-MB-435): 1.79 µM
- TGI (MDA-MB-435): 3.33 µM
- GI50 (SK-OV-3 ovarian): 23.6 µM
- TGI (SK-OV-3 ovarian): 47.3 µM
- GI50 (HL-60(TB) leukemia): 2.21 µM
- TGI (HL-60(TB) leukemia): 5.11 µM
- GI50 (SK-MEL-2 melanoma): 19 µM
- TGI (SK-MEL-2 melanoma): 57.1 µM
- GI50 (DU-145 prostate): 1.88 µM
- TGI (DU-145 prostate): 3.37 µM
- GI50 (SF-539 CNS): 1.74 µM
- TGI (SF-539 CNS): 3.26 µM
- GI50 (UACC-257 melanoma): 5.75 µM
- TGI (UACC-257 melanoma): 31.1 µM
- GI50 (RPMI-8226 leukemia): 2.31 µM
- TGI (RPMI-8226 leukemia): 5.07 µM
- GI50 (NCI-H23 lung): 1.91 µM
- TGI (NCI-H23 lung): 3.89 µM
- GI50 (SK-MEL-5 melanoma): 5.25 µM
- TGI (SK-MEL-5 melanoma): 19.2 µM
- GI50 (M14 melanoma): 1.75 µM
- TGI (M14 melanoma): 3.4 µM
- GI50 (UO-31 renal): 15.4 µM
- TGI (UO-31 renal): 51.1 µM
- GI50 (A498 renal): 12.6 µM
- TGI (A498 renal): 26.7 µM
- GI50 (NCI-H460 lung): 1.9 µM
- TGI (NCI-H460 lung): 3.58 µM
